What all share (type): functional
In test [1] the test system is Mycobacterium tuberculosis. Description: Antimycobacterial activity against multi drug-resistant Mycobacterium tuberculosis 8666/2010 assessed as minimal inhibitory concentration required for complete inhibition of mycobacterial growth incubated for 21 days. The following applies: 8666/2010, 504 h, time 21 day.
Test [2] relates to Mycobacterium tuberculosis. As to the kind of experiment: Antimycobacterial activity against multi drug-resistant Mycobacterium tuberculosis 7357/1998 assessed as minimal inhibitory concentration required for complete inhibition of mycobacterial growth incubated for 21 days. The following applies: 7357/1998, 504 h, time 21 day.
Test [3] deals with Mycobacterium tuberculosis. As to the kind of experiment: Antimycobacterial activity against multi drug-resistant Mycobacterium tuberculosis 234/2005 assessed as minimal inhibitory concentration required for complete inhibition of mycobacterial growth incubated for 14 days. The following applies: 234/2005, 336 h, time 14 day.
Test [4] concerns Mycobacterium tuberculosis. As to the kind of experiment: Antimycobacterial activity against multi drug-resistant Mycobacterium tuberculosis praha 1 assessed as minimal inhibitory concentration required for complete inhibition of mycobacterial growth incubated for 14 days. The following applies: praha 1, 336 h, time 14 day.
Test [5] concerns Mycobacterium tuberculosis. Description: Antimycobacterial activity against multi drug-resistant Mycobacterium tuberculosis 9449/2007 assessed as minimal inhibitory concentration required for complete inhibition of mycobacterial growth incubated for 14 days. The following applies: 9449/2007, 336 h, time 14 day.
The subject of test [6] is Mycobacterium tuberculosis. Description: Antimycobacterial activity against multi drug-resistant Mycobacterium tuberculosis praha 4 assessed as minimal inhibitory concentration required for complete inhibition of mycobacterial growth incubated for 21 days. The following applies: praha 4, 504 h, time 21 day.
Test [7] deals with Mycobacterium tuberculosis. As to the kind of experiment: Antimycobacterial activity against multi drug-resistant Mycobacterium tuberculosis 7357/1998 assessed as minimal inhibitory concentration required for complete inhibition of mycobacterial growth incubated for 14 days. The following applies: 7357/1998, 336 h, time 14 day.
Test [8] deals with Mycobacterium tuberculosis. Description: Antimycobacterial activity against multi drug-resistant Mycobacterium tuberculosis 8666/2010 assessed as minimal inhibitory concentration required for complete inhibition of mycobacterial growth incubated for 14 days. The following applies: 8666/2010, 336 h, time 14 day.
The test system of test [9] is Mycobacterium tuberculosis. Description: Antimycobacterial activity against multi drug-resistant Mycobacterium tuberculosis praha 4 assessed as minimal inhibitory concentration required for complete inhibition of mycobacterial growth incubated for 14 days. The following applies: praha 4, 336 h, time 14 day.
The test system of test [10] is Mycobacterium tuberculosis. Description: Antimycobacterial activity against multi drug-resistant Mycobacterium tuberculosis praha 1 assessed as minimal inhibitory concentration required for complete inhibition of mycobacterial growth incubated for 21 days. The following applies: praha 1, 504 h, time 21 day.
Test [11] concerns Mycobacterium tuberculosis. Description: Antimycobacterial activity against multi drug-resistant Mycobacterium tuberculosis 9449/2007 assessed as minimal inhibitory concentration required for complete inhibition of mycobacterial growth incubated for 21 days. The following applies: 9449/2007, 504 h, time 21 day.
Test [12] relates to Mycobacterium tuberculosis. As to the kind of experiment: Antimycobacterial activity against multi drug-resistant Mycobacterium tuberculosis 234/2005 assessed as minimal inhibitory concentration required for complete inhibition of mycobacterial growth incubated for 21 days. The following applies: 234/2005, 504 h, time 21 day.
The subject of test [13] is Mycobacterium tuberculosis. As to the kind of experiment: Antimycobacterial activity against multi drug-resistant Mycobacterium tuberculosis praha 131 assessed as minimal inhibitory concentration required for complete inhibition of mycobacterial growth incubated for 14 days. The following applies: praha 131, 336 h, time 14 day.
The subject of test [14] is Mycobacterium tuberculosis. As to the kind of experiment: Antimycobacterial activity against multi drug-resistant Mycobacterium tuberculosis praha 131 assessed as minimal inhibitory concentration required for complete inhibition of mycobacterial growth incubated for 21 days. The following applies: praha 131, 504 h, time 21 day.
Test [15] relates to Mycobacterium tuberculosis. Description: Antimycobacterial activity against Mycobacterium tuberculosis H37Ra overexpressing KatGs-meg assessed as bacterial growth inhibition incubated for 28 days by drop dilution method. The following applies: 672 h, time 28 day.
In test [16] the test system is Mycobacterium tuberculosis. Description: Antimycobacterial activity against Mycobacterium tuberculosis H37Ra overexpressing InhA assessed as bacterial growth inhibition incubated for 28 days by drop dilution method. The following applies: 672 h, time 28 day.

Molecules are shown by their SMILES. In brackets after ≈: the same amount, converted by molar mass.

Broadly, the MIC is the least concentration at which growth counts as inhibited. Consider `C/C(=N\NC(=O)c1ccncc1)C(=O)Nc1ccc(Cl)c(Cl)c1`, for which the MIC in [1] amounted to 32 µM (≈ 11.2 µg/mL); in test [2], 125 µM (≈ 43.9 µg/mL); in test [3] it was 64 µM (≈ 22.5 µg/mL); in test [4] it was 64 µM (≈ 22.5 µg/mL); in [5], 32 µM (≈ 11.2 µg/mL); in [6] it was 125 µM (≈ 43.9 µg/mL). Moreover, the MIC in test [7] is 64 µM (≈ 22.5 µg/mL); in test [8], 32 µM (≈ 11.2 µg/mL); in test [9] it was 64 µM (≈ 22.5 µg/mL); in [10], 125 µM (≈ 43.9 µg/mL); in [11] it was 32 µM (≈ 11.2 µg/mL); in test [12] it was 125 µM (≈ 43.9 µg/mL). The minimal inhibitory concentration (MIC) in test [13] is 32 µM (≈ 11.2 µg/mL); in test [14], 64 µM (≈ 22.5 µg/mL).

`C/C(=N\NC(=O)c1ccncc1)C(=O)Nc1ccc(F)cc1`: the MIC turned out to be 32 µM (≈ 9.61 µg/mL) in [1]; 64 µM (≈ 19.2 µg/mL) in [2]; 64 µM (≈ 19.2 µg/mL) in [3]; 64 µM (≈ 19.2 µg/mL) in [4]; 32 µM (≈ 9.61 µg/mL) in test [5]; 64 µM (≈ 19.2 µg/mL) in [6]. The MIC came to 64 µM (≈ 19.2 µg/mL) in [7]; 32 µM (≈ 9.61 µg/mL) in test [8]; 32 µM (≈ 9.61 µg/mL) in test [9]; 64 µM (≈ 19.2 µg/mL) in test [10]; 32 µM (≈ 9.61 µg/mL) in test [11]; 125 µM (≈ 37.5 µg/mL) in test [12]. Besides, the MIC in [13] and in test [14] was 64 µM (≈ 19.2 µg/mL) each time.

With `C/C(=N\NC(=O)c1ccncc1)C(=O)Nc1ccc(I)cc1`, the MIC in [1] amounted to 16 µM (≈ 6.53 µg/mL); in test [2], 32 µM (≈ 13.1 µg/mL); in [3], 16 µM (≈ 6.53 µg/mL); in test [4] it was 16 µM (≈ 6.53 µg/mL); in test [5] it was 8 µM (≈ 3.27 µg/mL); in [6], 32 µM (≈ 13.1 µg/mL). Further, the MIC stood at 0.25 µM (≈ 0.102 µg/mL) in test [15]; 16 µM (≈ 6.53 µg/mL) in test [7]; 8 µM (≈ 3.27 µg/mL) in test [8]; 16 µM (≈ 6.53 µg/mL) in test [9]; 32 µM (≈ 13.1 µg/mL) in [10]; 16 µM (≈ 6.53 µg/mL) in [11]. The minimal inhibitory concentration (MIC) in test [12] is 16 µM (≈ 6.53 µg/mL); in test [13], 8 µM (≈ 3.27 µg/mL); in [16] it was 12.5 µM (≈ 5.1 µg/mL); in test [14] it was 16 µM (≈ 6.53 µg/mL).

With `C/C(=N\NC(=O)c1ccncc1)C(=O)Nc1ccc(OC(F)(F)F)cc1`, the MIC stood at 64 µM (≈ 23.4 µg/mL) in test [1]; 64 µM (≈ 23.4 µg/mL) in test [2]; 32 µM (≈ 11.7 µg/mL) in [3]; 64 µM (≈ 23.4 µg/mL) in test [4]; 32 µM (≈ 11.7 µg/mL) in test [5]; 64 µM (≈ 23.4 µg/mL) in [6]. Further, the MIC was 0.15 µM (≈ 0.0549 µg/mL) in test [15]; 32 µM (≈ 11.7 µg/mL) in [7]; 32 µM (≈ 11.7 µg/mL) in test [8]; 32 µM (≈ 11.7 µg/mL) in [9]; 64 µM (≈ 23.4 µg/mL) in [10]; 64 µM (≈ 23.4 µg/mL) in [11]. The MIC was determined as 32 µM (≈ 11.7 µg/mL) in [12], 64 µM (≈ 23.4 µg/mL) in [13], 6 µM (≈ 2.2 µg/mL) in test [16] and 64 µM (≈ 23.4 µg/mL) in [14].

Consider `C/C(=N\NC(=O)c1ccncc1)C(=O)Nc1cccc(Cl)c1`, for which the MIC worked out at 32 µM (≈ 10.1 µg/mL) in test [1]; 32 µM (≈ 10.1 µg/mL) in test [2]; 64 µM (≈ 20.3 µg/mL) in test [3]; 32 µM (≈ 10.1 µg/mL) in [4]; 32 µM (≈ 10.1 µg/mL) in test [5]; 32 µM (≈ 10.1 µg/mL) in test [6]. Also, the MIC amounted to 32 µM (≈ 10.1 µg/mL) in [7]; 16 µM (≈ 5.07 µg/mL) in test [8]; 32 µM (≈ 10.1 µg/mL) in [9]; 32 µM (≈ 10.1 µg/mL) in test [10]; 64 µM (≈ 20.3 µg/mL) in [11]; 64 µM (≈ 20.3 µg/mL) in test [12]. The values for the MIC in test [13] and in [14] were 32 µM (≈ 10.1 µg/mL) and 64 µM (≈ 20.3 µg/mL), respectively.

As for `C/C(=N\NC(=O)c1ccncc1)C(=O)Nc1ccc(Br)cc1`, the MIC in test [1], in test [2], in test [3], in test [4], in test [5] and in [6] was 32 µM (≈ 11.6 µg/mL) each time. Also, the minimal inhibitory concentration (MIC) in test [7] amounted to 32 µM (≈ 11.6 µg/mL); in test [8], 32 µM (≈ 11.6 µg/mL); in [9], 32 µM (≈ 11.6 µg/mL); in [10] it was 32 µM (≈ 11.6 µg/mL); in [11] it was 64 µM (≈ 23.1 µg/mL); in [12] it was 64 µM (≈ 23.1 µg/mL). The MIC in test [13] turned out to be 32 µM (≈ 11.6 µg/mL); in [14], 64 µM (≈ 23.1 µg/mL).

As to `C/C(=N\NC(=O)c1ccncc1)C(=O)Nc1ccc(Cl)cc1`, the MIC in test [1] worked out at 16 µM (≈ 5.07 µg/mL); in [2], 32 µM (≈ 10.1 µg/mL); in test [3], 32 µM (≈ 10.1 µg/mL); in test [4], 32 µM (≈ 10.1 µg/mL); in test [5] it was 32 µM (≈ 10.1 µg/mL); in test [6] it was 32 µM (≈ 10.1 µg/mL). Besides, the MIC was determined as 32 µM (≈ 10.1 µg/mL) in [7]; 8 µM (≈ 2.53 µg/mL) in [8]; 32 µM (≈ 10.1 µg/mL) in test [9]; 32 µM (≈ 10.1 µg/mL) in test [10]; 64 µM (≈ 20.3 µg/mL) in test [11]; 64 µM (≈ 20.3 µg/mL) in [12]. Moreover, the MIC is 32 µM (≈ 10.1 µg/mL) in test [13] and 64 µM (≈ 20.3 µg/mL) in [14].

With `C/C(=N\NC(=O)c1ccncc1)C(=O)Nc1ccc(C(F)(F)F)cc1`, the MIC came out at 32 µM (≈ 11.2 µg/mL) in test [1]; 64 µM (≈ 22.4 µg/mL) in test [2]; 32 µM (≈ 11.2 µg/mL) in test [3]; 32 µM (≈ 11.2 µg/mL) in test [4]; 32 µM (≈ 11.2 µg/mL) in [5]; 64 µM (≈ 22.4 µg/mL) in test [6]. The MIC was 32 µM (≈ 11.2 µg/mL) in test [7]; 32 µM (≈ 11.2 µg/mL) in test [8]; 32 µM (≈ 11.2 µg/mL) in [9]; 64 µM (≈ 22.4 µg/mL) in [10]; 32 µM (≈ 11.2 µg/mL) in [11]; 64 µM (≈ 22.4 µg/mL) in test [12]. Besides, the minimal inhibitory concentration (MIC) in test [13] and in test [14] was 64 µM (≈ 22.4 µg/mL) throughout.
